Data as given in patent publication US8017785B2, “Salt forms of (2S)-(4E)-N-methyl-5-[3-(5-isopropoxypyridin)y1]-4-penten 2-amine” (AstraZeneca AB, priority 2006, dated 2011).

Target: CNS nicotinic receptors
Test: Determination of binding to relevant receptor sites
Details: free base used to prepare the salts
Protocol: Receptor binding constants provide a measure of the ability of the compound to bind to half of the relevant receptor sites of certain brain cells of the patient. See, Cheng, et al., Biochem. Pharmacol. 22:3099 (1973). The (2S)-(4E)-N-methyl-5-[3-(5-isopropoxypyridin)yl]-4-penten-2-amine compound used to prepare the salts has extremely high affinity for the relevant receptors, with a binding affinity in the low nM range.
Binding of the compounds to relevant receptor sites was determined in accordance with the techniques described in U.S. Pat. No. 6,953,855 to Mazurov et al Inhibition constants (Ki values), reported in nM, were calculated from the IC50 values using the method of Cheng et al., Biochem, Pharmacol. 22:3099 (1973).

## CN[C@@H](C)C/C=C/c1cncc(OC(C)C)c1 [(2S)-(4E)-N-methyl-5-[3-(5-isopropoxypyridin)yl]-4-penten-2-amine]
  binding affinity (receptor binding constant, Ki): low nM range
